Molecular target: T1, P2X7 receptor (Homo sapiens, UniProt Q99572)
T1 construct: expressed in transfected cells; host or cells: HEK.293 cells, transient transfection with Lipofectamine LTX
T1 sequence (Q99572 1-595): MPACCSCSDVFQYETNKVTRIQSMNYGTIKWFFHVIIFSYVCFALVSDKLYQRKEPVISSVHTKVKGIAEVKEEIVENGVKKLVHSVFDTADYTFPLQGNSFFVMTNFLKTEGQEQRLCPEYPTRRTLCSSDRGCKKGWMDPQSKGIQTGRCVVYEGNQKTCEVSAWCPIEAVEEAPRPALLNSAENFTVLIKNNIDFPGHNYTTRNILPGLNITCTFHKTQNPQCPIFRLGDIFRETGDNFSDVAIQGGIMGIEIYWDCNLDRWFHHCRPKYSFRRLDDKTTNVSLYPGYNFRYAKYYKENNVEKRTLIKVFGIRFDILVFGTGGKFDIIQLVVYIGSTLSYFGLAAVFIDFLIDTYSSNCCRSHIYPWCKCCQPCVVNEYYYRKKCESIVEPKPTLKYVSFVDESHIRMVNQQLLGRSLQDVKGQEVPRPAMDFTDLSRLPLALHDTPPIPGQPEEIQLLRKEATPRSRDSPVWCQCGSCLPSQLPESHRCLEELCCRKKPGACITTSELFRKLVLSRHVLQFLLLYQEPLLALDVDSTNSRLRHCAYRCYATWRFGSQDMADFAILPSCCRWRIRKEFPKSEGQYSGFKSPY
Experiment: Pore-forming (Yo Pro-1 dye uptake) assay in P2X7 transfected HEK.293 cells, Bz-ATP agonist
Type: cell-based
Details: Bz-ATP 30 μM, Yo Pro-1 1 μM, triplicate
Description: A non-radioactive analogue of the Imaging Agent illustrated in Table I was screened in a P2X7 receptor functional assay. This assay is described in Example 3 and is based upon the ability of the P2X7 receptor to form a non-selective pore in P2X7 transfected HEK.293 cells upon activation with an agonist, thereby allowing dye to permeate the cells. The non selective P2X channel antagonist used as a reference inhibitor for the evaluation of the non-radioactive compound of the invention was pyridoxal-phosphate-6-azophenyl-2′,4′-disulfonate (PPADS), and the results of the assay are provided in Table I above.
The assay method used was based on the ability of the DNA binding dye, Yo Pro-1 (quinolinium, 4[3-methyl-2(3H)-benzoxazolylidene)methyl]-1-[3-(trimethyl-ammonio)propyl]-dioxide) to enter through the dilated or “large pore form” of the P2X7 receptor and to bind to intracellular DNA/RNA whereupon it increases fluorescence intensity. Yo Pro-1 was therefore used to quantify inhibition of P2X7 function. This assay was based on the methods published by Michel et al., (B.J. Pharmacol 1998; 125: 1194-1201).
Initially, HEK.293 cells were transiently transfected using LipofectamineTMLTX (Invitrogen) for 72 hrs with P2X7 cDNA. 48 hours prior to use the cells were seeded into poly-D-lysine coated 96-well black-walled, clear bottomed plates, at a density of 30,000 cells/well. Stock solutions of test compound were prepared at a concentration of 40 mM in 100% DMSO.
Following the 48 hour incubation the culture medium was removed from the transfected cells, the cells were washed once and placed in pre-warmed sucrose assay buffer (Sucrose: 280 mM, KCL 5 mM, CaCl2: 0.5 mM, glucose: 10 mM, HEPES: 10 mM, N-methyl-D-glucamine: 10 mM; pH7.4). […] The fluorescence was then read at 485 nm excitation and 530 nm emission.
The non-selective P2X channel antagonist pyrdoxalphosphate-6-azophenyl-2′4′-disulphonic acid (PPADS) was used as a reference inhibitor in the assay. […] For each compound data set, a percentage inhibition value was calculated based on the three assay points generated.

% inhibition (test compound at 100 μM (so in the source)) [%] | Compound | % inhibition (test compound at 10 μM) [%]
68.0 | Oc1ccccc1CNc1ncnn1-c1cccc(Cl)c1Cl [imaging agent 1] | 77.0
 | Cc1nc(N=Nc2ccc(S(=O)(=O)O)cc2S(=O)(=O)O)c(COP(=O)(O)O)c(C=O)c1O [PPADS, pyridoxal-phosphate-6-azophenyl-2′,4′-disulfonate, reference compound] | 70

Reference: patent US20120034165A1, “IMAGING THE CENTRAL NERVOUS SYSTEM WITH PURINERGIC P2X7 RECEPTOR BINDING AGENTS” (priority 2009, published 2012)
